# How the values were obtained:
# [1] = tested on: STZ-diabetic mice (KunMing strain); assay: 4-week treatment study in streptozotocin-induced diabetic mice; type: in vivo
# Method: Animal Model. […] Diabetes was induced in mice with a single injection of streptozotocin (STZ). After fasting for 12 hrs, male mice with body weight above 20 g were given STZ dissolved in sodium citrate buffer via tail vein at a dose of 110 mg/kg body weight. […] Diabetic animals were divided into 5 groups (10 mice per group). Of these, 3 groups were treated with test samples, one group was a control group, receiving vehicle alone, and one group received metformin, an oral anti-diabetic agent. A sixth group, consisting of non-diabetic mice, was also included for comparison. They were treated with vehicle alone. Mice were housed 5 to a cage with free access to food and water. Test Samples and Dose. A. nodosum samples tested were as follows: 1) crude extract, CE 2) polyphenolic fraction, PPF 3) polysaccharide fraction, PSF Samples were dissolved in carboxymethylcellulose (CMC; 0.5%). Test sample solutions were prepared every morning at a concentration of 20 mg/ml in distilled water and given via gavage at a volume of 0.2 mL/20 g BW to deliver a dose of 200 mg/kg body weight. The control groups were gavaged with distilled water (0.2 mL/20 g BW). […] Animals were treated daily for 4 weeks. Measurements.
# STZ-diabetic mice = assay: Sucrose challenge in diabetic mice; type: in vivo
# Method: Animal model. Mice were made diabetic as described above and were allotted to eight groups (10 animals per group) as follows: […] Treatment and Measurement. Test samples were prepared at appropriate concentrations so that the required doses were delivered in a volume of 0.2 mL/20 g body weight. Acarbose was also dissolved in 0.5% CMC ([…]) and given at a dose of 25 mg/kg BW. Ten minutes after gavaging of samples, blood was sampled from tail vein for glucose measurement (Time 0). The animals were then gavaged with sucrose (20% in water at a dose of 2 g/kg body weight). […] A group of non-diabetic mice were given an equivalent volume of saline (0.2 ml/20 g BW).
# [2] = STZ-diabetic mice, Day 28, dose 200 mg/kg, mean ± S.D.
# [3] = STZ-diabetic mice, daily gavage, printed dose 200 mg/kg, mean ± S.D.
# [4] = sucrose challenge, acarbose-treated mice
smiles,measurement,setting,value
"CN(C)C(=N)N=C(N)N [Metformin, metformin]",serum glucose versus STZ-diabetic mice (in words),"[1]; 4-week treatment, P<0.05",significantly lower serum glucose at each of the time points
same,blood total antioxidant level (in words),[1]; Day 28,significant increases in antioxidant activity
same,glycated Hb versus STZ-diabetic mice (in words),[1]; Day 28,reduced
same,total cholesterol versus STZ-diabetic mice (in words),[1]; Day 28,reduced
same,liver glycogen level (in words),"[1]; Day 28, STZ-diabetic mice",significantly increased liver glycogen level
same,AntIoxidant activity (U/ml serum),[1]; [2],8.15 ± 1.8 U/ml serum
same,Glycated Hb,[1]; [2],5.22 ± 0.5 mmol/L
same,Liver glycogen (mg/g wet tissue),[1]; [2],5.51 ± 0.8 mg/g wet tissue
same,Total Cholesterol,[1]; [2],1.93 ± 0.7 mmol/L
same,Blood glucose (mM) Day 7,[1]; [3],13.04 ± 5.8 mM
same,Blood glucose (mM) Day 14,[1]; [3],11.60 ± 4.1 mM
same,Blood glucose (mM) Day 21,[1]; [3],12.38 ± 4.7 mM
same,Blood glucose (mM) Day 28,[1]; [3],13.59 ± 7.7 mM
same,Blood glucose (mM) Day 0,"[1]; STZ-diabetic mice, start of treatment period, mean ± S.D.",13.50 ± 2.5 mM
"C[C@H]1O[C@H](O[C@H]2[C@H](O)[C@@H](O)[C@@H](O[C@H]3[C@H](O)[C@@H](O)C(O)O[C@@H]3CO)O[C@@H]2CO)[C@H](O)[C@@H](O)[C@@H]1N[C@H]1C=C(CO)[C@@H](O)[C@H](O)[C@H]1O (stereo partly drawn) [Acarbose, acarbose]","serum glucose level, 0 min","STZ-diabetic mice; sucrose challenge 2 g/kg, dose 25 mg/kg, 0 min",15.64 ± 2.6 mmol/L
same,"serum glucose level, 10 min","STZ-diabetic mice; sucrose challenge 2 g/kg, dose 25 mg/kg, 10 min",21.71 ± 3.6 mmol/L
same,"serum glucose level, 30 min","STZ-diabetic mice; sucrose challenge 2 g/kg, dose 25 mg/kg, 30 min",24.67 ± 4.1 mmol/L
same,"serum glucose level, 60 min","STZ-diabetic mice; sucrose challenge 2 g/kg, dose 25 mg/kg, 60 min",19.80 ± 4.8 mmol/L
same,"serum glucose level, 120 min","STZ-diabetic mice; sucrose challenge 2 g/kg, dose 25 mg/kg, 120 min",14.29 ± 2.9 mmol/L
same,area-under-the-curve (AUC) for glucose,STZ-diabetic mice; [4],2340 units (mmol/L×120 min.)
same,reduction of glucose AUC versus STZ-mice,STZ-diabetic mice; [4],33%
